Values quoted from earlier work as cited in patent US10449179B2, “Stable veterinary anthelmintic formulations” (DONAGHYS LIMITED, priority 2014, dated 2019).

Conditions: LD50 literature averages for three animal species, human equivalent, safety factor 10

## C[S+](C)[O-] [DMSO, dimethylsulfoxide]
  safety relative to N-methylpyrrolidone (acute oral LD50): approximately 5 times
